In brackets after ≈: the same amount, converted by molar mass.
Assays:
Human alphaherpesvirus 1 [1] = assay: Antiviral activity against Human herpesvirus 1 infected bovine MDBK cells assessed as concentration required to cause maximum inhibition of virus-induced cytopathic effect; type: functional
Human alphaherpesvirus 1 [2] = assay: Antiviral activity against Human herpesvirus 1 infected bovine MDBK cells assessed as concentration required to cause minimum inhibition of virus-induced cytopathic effect; type: functional
Candida parapsilosis = assay: Antifungal activity against Candida parapsilosis ATCC 22019 by microdilution method; type: functional; conditions: Lodderomyces parapsilosis
Enterococcus faecalis [3] = assay: Antibacterial activity against Enterococcus faecalis ATCC 29212 by microdilution method; type: functional
Human respirovirus 3 [4] = assay: Antiviral activity against Human parainfluenza virus 3 infected African green monkey Vero cells assessed as concentration required to cause maximum inhibition of virus-induced cytopathic effect; type: functional
[5] = Cytotoxicity against Chlorocebus aethiops (African green monkey) Vero cells assessed as maximum non-toxic concentration; type: cell-based; conditions: chlorocebus sabaeus, read-out: MNCC
Klebsiella pneumoniae [6] = assay: Antibacterial activity against Klebsiella pneumoniae RSKK 574 by microdilution method; type: functional
Escherichia coli [7] = assay: Antibacterial activity against ESbetaL positive trimethoprim-sulfamethoxazole, cefepime, tazobactam-resistant Escherichia coli isolate by microdilution method; type: functional
Proteus mirabilis [8] = assay: Antibacterial activity against Proteus mirabilis ATCC 7002 by microdilution method; type: functional
Klebsiella pneumoniae [9] = assay: Antibacterial activity against ESbetaL positive trimethoprim-sulfamethoxazole, amoxicillin clavulonat, cefriaxon, cephepim, aztreonam-resistant Klebsiella pneumoniae by microdilution method; type: functional
Pseudomonas aeruginosa [10] = assay: Antibacterial activity against trimethoprim-sulfamethoxazole, tazobactam-resistant Pseudomonas aeruginosa by microdilution method; type: functional
Acinetobacter baumannii [11] = assay: Antibacterial activity against trimethoprim-sulfamethoxazole, cefepime-resistant Acinetobacter baumannii by microdilution method; type: functional
Pseudomonas aeruginosa [12] = assay: Antibacterial activity against Pseudomonas aeruginosa ATCC 10145 by microdilution method; type: functional
Candida albicans = assay: Antifungal activity against Candida albicans ATCC 10231 by microdilution method; type: functional
Bacillus subtilis [13] = assay: Antibacterial activity against ceftriaxon-resistant Bacillus subtilis by microdilution method; type: functional
Human respirovirus 3 [14] = assay: Antiviral activity against Human parainfluenza virus 3 infected African green monkey Vero cells assessed as concentration required to cause minimum inhibition of virus-induced cytopathic effect; type: functional
Staphylococcus aureus [15] = assay: Antibacterial activity against Staphylococcus aureus ATCC 25923 by microdilution method; type: functional
Enterococcus faecalis [16] = assay: Antibacterial activity against cephalosporins and beta-lactam-resistant Enterococcus faecalis by microdilution method; type: functional
Acinetobacter baumannii [17] = assay: Antibacterial activity against Acinetobacter baumannii RSKK 02026 by microdilution method; type: functional
Bacillus subtilis [18] = assay: Antibacterial activity against Bacillus subtilis ATCC 6633 by microdilution method; type: functional
[19] = Cytotoxicity against Bos taurus (bovine) MDBK cells assessed as maximum non-toxic concentration; type: cell-based; conditions: cattle, read-out: MNCC
Escherichia coli [20] = assay: Antibacterial activity against Escherichia coli ATCC 35218 by microdilution method; type: functional
Proteus mirabilis [21] = assay: Antibacterial activity against ESbetaL positive rimethoprim-sulfamethoxazole, cefepime, tazobactam-resistant Proteus mirabilis by microdilution method; type: functional
Staphylococcus aureus [22] = assay: Antibacterial activity against oxacillin, gentamicin, aztreonam, trimethoprim-sulfamethoxazole-resistant Staphylococcus aureus by microdilution method; type: functional

In the case of `Nc1nc2c(ncn2COCCO)c(=O)[nH]1` [ACYCLOVIR], the Activity (Human alphaherpesvirus 1 [1]) is reported as 1.6 µg/mL and the Activity (Human alphaherpesvirus 1 [2]) is reported as under 0.012 µg/mL.
Work on `COc1ccc(N2CCN(Cc3oc(CCl)cc(=O)c3O)CC2)cc1` yielded an MIC (Candida parapsilosis) of 8 µg/mL (≈ 21.9 µM), an MIC (Enterococcus faecalis [3]) of 32 µg/mL (≈ 87.7 µM) and an Activity (Human respirovirus 3 [4]) of 0.8 µg/mL. It also gave an MNTC [5] of 1.6 µg/mL, an Activity (Human alphaherpesvirus 1 [1]) of 1.6 µg/mL and an MIC (Klebsiella pneumoniae [6]) of 16 µg/mL (≈ 43.9 µM). The MIC (Escherichia coli [7]) was 64 µg/mL, the MIC (Proteus mirabilis [8]) was 32 µg/mL (≈ 87.7 µM) and the MIC (Klebsiella pneumoniae [9]) was 32 µg/mL (≈ 87.7 µM). The MIC (Pseudomonas aeruginosa [10]) was 64 µg/mL, the MIC (Acinetobacter baumannii [11]) was 32 µg/mL (≈ 87.7 µM) and the MIC (Pseudomonas aeruginosa [12]) was 16 µg/mL (≈ 43.9 µM). For the same molecule, the MIC (Candida albicans) was 8 µg/mL (≈ 21.9 µM), the MIC (Bacillus subtilis [13]) was 64 µg/mL (≈ 175 µM) and the Activity (Human respirovirus 3 [14]) was 0.05 µg/mL. For the same molecule, the MIC (Staphylococcus aureus [15]) was 32 µg/mL (≈ 87.7 µM), the MIC (Enterococcus faecalis [16]) was 64 µg/mL (≈ 175 µM) and the MIC (Acinetobacter baumannii [17]) was 16 µg/mL (≈ 43.9 µM). For the same molecule, the MIC (Bacillus subtilis [18]) was 32 µg/mL (≈ 87.7 µM), the MNTC [19] was 1.6 µg/mL and the Activity (Human alphaherpesvirus 1 [2]) was 0.1 µg/mL. For the same molecule, the MIC (Escherichia coli [20]) was 32 µg/mL (≈ 87.7 µM), the MIC (Proteus mirabilis [21]) was 64 µg/mL and the MIC (Staphylococcus aureus [22]) was 64 µg/mL (≈ 175 µM).
`O=c1cc(CCl)oc(CN2CCN(c3ccc(Cl)cc3)CC2)c1O` gave an MIC (Candida parapsilosis) of 16 µg/mL (≈ 43.3 µM), an MIC (Enterococcus faecalis [3]) of 8 µg/mL (≈ 21.7 µM) and an Activity (Human respirovirus 3 [4]) of 0.4 µg/mL. It also gave an MNTC [5] of 0.4 µg/mL, an Activity (Human alphaherpesvirus 1 [1]) of 0.4 µg/mL and an MIC (Klebsiella pneumoniae [6]) of 64 µg/mL (≈ 173 µM). The MIC (Escherichia coli [7]) was over 128 µg/mL, the MIC (Proteus mirabilis [8]) was 64 µg/mL (≈ 173 µM) and the MIC (Klebsiella pneumoniae [9]) was over 128 µg/mL. The MIC (Pseudomonas aeruginosa [10]) was over 128 µg/mL, the MIC (Acinetobacter baumannii [11]) was over 128 µg/mL and the MIC (Pseudomonas aeruginosa [12]) was 64 µg/mL (≈ 173 µM). It also gave an MIC (Candida albicans) of 16 µg/mL (≈ 43.3 µM), an MIC (Bacillus subtilis [13]) of over 128 µg/mL and an Activity (Human respirovirus 3 [14]) of 0.025 µg/mL. It also gave an MIC (Staphylococcus aureus [15]) of 8 µg/mL (≈ 21.7 µM), an MIC (Enterococcus faecalis [16]) of over 128 µg/mL and an MIC (Acinetobacter baumannii [17]) of 64 µg/mL (≈ 173 µM). It also gave an MIC (Bacillus subtilis [18]) of 16 µg/mL (≈ 43.3 µM), an MNTC [19] of 1.6 µg/mL and an Activity (Human alphaherpesvirus 1 [2]) of 0.1 µg/mL. The MIC (Escherichia coli [20]) was 64 µg/mL (≈ 173 µM), the MIC (Proteus mirabilis [21]) was over 128 µg/mL and the MIC (Staphylococcus aureus [22]) was over 128 µg/mL.
In the case of `O=c1cc(CCl)oc(CN2CCN(c3cccc(Cl)c3)CC2)c1O`, the MIC (Candida parapsilosis) is reported as 16 µg/mL (≈ 43.3 µM), the MIC (Enterococcus faecalis [3]) is reported as 8 µg/mL (≈ 21.7 µM) and the Activity (Human respirovirus 3 [4]) is reported as 0.8 µg/mL. It also gave an MNTC [5] of 0.8 µg/mL, an Activity (Human alphaherpesvirus 1 [1]) of 0.8 µg/mL and an MIC (Klebsiella pneumoniae [6]) of 32 µg/mL (≈ 86.7 µM). The MIC (Escherichia coli [7]) was 64 µg/mL, the MIC (Proteus mirabilis [8]) was 32 µg/mL (≈ 86.7 µM) and the MIC (Klebsiella pneumoniae [9]) was 64 µg/mL (≈ 173 µM). The MIC (Pseudomonas aeruginosa [10]) was 64 µg/mL, the MIC (Acinetobacter baumannii [11]) was 64 µg/mL (≈ 173 µM) and the MIC (Pseudomonas aeruginosa [12]) was 32 µg/mL (≈ 86.7 µM). For the same molecule, the MIC (Candida albicans) was 16 µg/mL (≈ 43.3 µM), the MIC (Bacillus subtilis [13]) was 32 µg/mL (≈ 86.7 µM) and the Activity (Human respirovirus 3 [14]) was 0.025 µg/mL. The MIC (Staphylococcus aureus [15]) was 8 µg/mL (≈ 21.7 µM), the MIC (Enterococcus faecalis [16]) was 128 µg/mL (≈ 347 µM) and the MIC (Acinetobacter baumannii [17]) was 32 µg/mL (≈ 86.7 µM). It also gave an MIC (Bacillus subtilis [18]) of 16 µg/mL (≈ 43.3 µM), an MNTC [19] of 1.6 µg/mL and an Activity (Human alphaherpesvirus 1 [2]) of 0.1 µg/mL. It also gave an MIC (Escherichia coli [20]) of 32 µg/mL (≈ 86.7 µM), an MIC (Proteus mirabilis [21]) of 64 µg/mL and an MIC (Staphylococcus aureus [22]) of 128 µg/mL (≈ 347 µM).
With `O=c1cc(CCl)oc(CN2CCN(c3ccc(Cl)c(Cl)c3)CC2)c1O` the MIC (Candida parapsilosis) was 16 µg/mL (≈ 39.6 µM), the MIC (Enterococcus faecalis [3]) was 8 µg/mL (≈ 19.8 µM) and the Activity (Human respirovirus 3 [4]) was 0.4 µg/mL. The MNTC [5] was 0.4 µg/mL, the Activity (Human alphaherpesvirus 1 [1]) was 0.4 µg/mL and the MIC (Klebsiella pneumoniae [6]) was 32 µg/mL (≈ 79.3 µM). The MIC (Escherichia coli [7]) was 64 µg/mL, the MIC (Proteus mirabilis [8]) was 32 µg/mL (≈ 79.3 µM) and the MIC (Klebsiella pneumoniae [9]) was 64 µg/mL (≈ 159 µM). For the same molecule, the MIC (Pseudomonas aeruginosa [10]) was 64 µg/mL, the MIC (Acinetobacter baumannii [11]) was 32 µg/mL (≈ 79.3 µM) and the MIC (Pseudomonas aeruginosa [12]) was 16 µg/mL (≈ 39.6 µM). For the same molecule, the MIC (Candida albicans) was 16 µg/mL (≈ 39.6 µM), the MIC (Bacillus subtilis [13]) was 64 µg/mL (≈ 159 µM) and the Activity (Human respirovirus 3 [14]) was 0.05 µg/mL. The MIC (Staphylococcus aureus [15]) was 8 µg/mL (≈ 19.8 µM), the MIC (Enterococcus faecalis [16]) was 64 µg/mL (≈ 159 µM) and the MIC (Acinetobacter baumannii [17]) was 64 µg/mL (≈ 159 µM). The MIC (Bacillus subtilis [18]) was 16 µg/mL (≈ 39.6 µM), the MNTC [19] was 1.6 µg/mL and the Activity (Human alphaherpesvirus 1 [2]) was 0.1 µg/mL. For the same molecule, the MIC (Escherichia coli [20]) was 64 µg/mL (≈ 159 µM), the MIC (Proteus mirabilis [21]) was 64 µg/mL and the MIC (Staphylococcus aureus [22]) was 64 µg/mL (≈ 159 µM).
With `O=c1cc(CCl)oc(CN2CCN(c3ccccc3Cl)CC2)c1O` the MIC (Candida parapsilosis) was 16 µg/mL (≈ 43.3 µM), the MIC (Enterococcus faecalis [3]) was 8 µg/mL (≈ 21.7 µM) and the Activity (Human respirovirus 3 [4]) was 0.4 µg/mL. It also gave an MNTC [5] of 0.4 µg/mL, an Activity (Human alphaherpesvirus 1 [1]) of 0.4 µg/mL and an MIC (Klebsiella pneumoniae [6]) of 64 µg/mL (≈ 173 µM). It also gave an MIC (Escherichia coli [7]) of over 128 µg/mL, an MIC (Proteus mirabilis [8]) of 64 µg/mL (≈ 173 µM) and an MIC (Klebsiella pneumoniae [9]) of over 128 µg/mL. For the same molecule, the MIC (Pseudomonas aeruginosa [10]) was over 128 µg/mL, the MIC (Acinetobacter baumannii [11]) was over 128 µg/mL and the MIC (Pseudomonas aeruginosa [12]) was 64 µg/mL (≈ 173 µM). It also gave an MIC (Candida albicans) of 16 µg/mL (≈ 43.3 µM), an MIC (Bacillus subtilis [13]) of over 128 µg/mL and an Activity (Human respirovirus 3 [14]) of 0.2 µg/mL. It also gave an MIC (Staphylococcus aureus [15]) of 8 µg/mL (≈ 21.7 µM), an MIC (Enterococcus faecalis [16]) of over 128 µg/mL and an MIC (Acinetobacter baumannii [17]) of 64 µg/mL (≈ 173 µM). It also gave an MIC (Bacillus subtilis [18]) of 16 µg/mL (≈ 43.3 µM), an MNTC [19] of 1.6 µg/mL and an Activity (Human alphaherpesvirus 1 [2]) of 0.1 µg/mL. It also gave an MIC (Escherichia coli [20]) of 64 µg/mL (≈ 173 µM), an MIC (Proteus mirabilis [21]) of over 128 µg/mL and an MIC (Staphylococcus aureus [22]) of over 128 µg/mL.
